US7851474B2, “Dipiperazinyl ketones and related analogues” (Neurogen Corporation, priority 2005, dated 2010)

Target: T1, chimeric human H3 receptor (Homo sapiens, UniProt Q9Y5N1, E19D)
T1 construct: made in house; host or cells: Sf9 insect cells (baculovirus infection); P2 membrane preparation
Assay: Chimeric human H3 receptor GTP binding assay (agonist-stimulated GTP-gamma35S binding, Example 7)
Assay type: biochemical
Settings: Table II "Ki", symbol "*": Ki in the assay of Example 7; read-out: Ki
Method in brief: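 IC50 values come from non-linear regression of dose-response curves of filter-bound GTP-gamma^35S, counted by scintillation. Membranes were from infected Sf9 cells carrying receptor plus G-protein subunits, 35 μg/tube, with 10 μM GDP present.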

T1 sequence (Q9Y5N1 with tags, fused parts or gaps E19D): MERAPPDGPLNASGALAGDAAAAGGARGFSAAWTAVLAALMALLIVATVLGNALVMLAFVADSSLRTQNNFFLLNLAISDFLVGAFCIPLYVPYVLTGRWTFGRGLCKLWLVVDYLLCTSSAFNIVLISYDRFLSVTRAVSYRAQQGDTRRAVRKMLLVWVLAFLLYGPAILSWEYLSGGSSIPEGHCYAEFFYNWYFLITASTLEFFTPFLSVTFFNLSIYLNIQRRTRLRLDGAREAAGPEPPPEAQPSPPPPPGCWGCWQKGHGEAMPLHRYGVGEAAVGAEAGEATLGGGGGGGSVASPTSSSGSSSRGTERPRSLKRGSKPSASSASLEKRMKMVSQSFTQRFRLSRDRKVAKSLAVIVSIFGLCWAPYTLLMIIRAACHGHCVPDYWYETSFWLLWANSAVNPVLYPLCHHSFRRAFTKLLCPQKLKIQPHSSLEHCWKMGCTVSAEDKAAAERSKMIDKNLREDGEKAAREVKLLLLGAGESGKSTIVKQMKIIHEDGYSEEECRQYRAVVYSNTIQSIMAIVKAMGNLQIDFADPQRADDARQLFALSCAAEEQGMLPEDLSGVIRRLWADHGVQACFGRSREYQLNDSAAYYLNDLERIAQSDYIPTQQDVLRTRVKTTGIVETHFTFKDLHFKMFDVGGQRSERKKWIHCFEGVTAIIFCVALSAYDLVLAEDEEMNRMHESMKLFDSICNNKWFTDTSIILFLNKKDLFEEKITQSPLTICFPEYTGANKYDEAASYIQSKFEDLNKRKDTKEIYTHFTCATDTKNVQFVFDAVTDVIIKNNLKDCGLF

Ki, < 1000 nM:
CC(=O)c1ccc(N2CCC(C(=O)OCC(=O)N3CCN(C4CCCC4)CC3)CC2)cc1 [Compound 908, 2-(4-cyclopentylpiperazin-1-yl)-2-oxoethyl 1-(4-acetylphenyl)piperidine-4-carboxylate]
O=C1CCc2cc(N3CCN(C(=O)OCC(=O)N4CCN(C5CCCC5)CC4)CC3)ccc21 [Compound 909, 2-(4-cyclopentylpiperazin-1-yl)-2-oxoethyl 4-(1-oxo-2,3-dihydro-1H-inden-5-yl)piperazine-1-carboxylate]
CC(C)(C)c1ccc(-c2cnc(N3CCN(CC(=O)N4CCN(C5CCC5)CC4)CC3)cn2)cc1 [Compound 910, 2-(4-tert-butylphenyl)-5-{4-[2-(4-cyclobutylpiperazin-1-yl)-2-oxoethyl]piperazin-1-yl}pyrazine]
COc1ccc(Cl)cc1-c1cnc(N2CCN(CC(=O)N3CCN(C4CCC4)CC3)CC2)cn1 [Compound 911, 2-(5-chloro-2-methoxyphenyl)-5-{4-[2-(4-cyclobutylpiperazin-1-yl)-2-oxoethyl]piperazin-1-yl}pyrazine]
O=C(CN1CCN(c2cnc(-c3cc(C(F)(F)F)ccc3Cl)cn2)CC1)N1CCN(C2CCC2)CC1 [Compound 912, 2-[2-chloro-5-(trifluoromethyl)phenyl]-5-{4-[2-(4-cyclobutylpiperazin-1-yl)-2-oxoethyl]piperazin-1-yl}pyrazine]
O=C(CN1CCN(c2cnc(-c3cc(C(F)(F)F)cc(C(F)(F)F)c3)cn2)CC1)N1CCN(C2CCC2)CC1 [Compound 913, 2-[3,5-bis(trifluoromethyl)phenyl]-5-{4-[2-(4-cyclobutylpiperazin-1-yl)-2-oxoethyl]piperazin-1-yl}pyrazine]
O=C(CN1CCN(c2cnc(-c3ccc(Cl)c(C(F)(F)F)c3)cn2)CC1)N1CCN(C2CCC2)CC1 [Compound 914, 2-[4-chloro-3-(trifluoromethyl)phenyl]-5-{4-[2-(4-cyclobutylpiperazin-1-yl)-2-oxoethyl]piperazin-1-yl}pyrazine]
O=C(CN1CCN(c2nc3ccccc3n2Cc2ccc(F)cc2)CC1)N1CCN(C2CCC2)CC1 [Compound 915, 2-{4-[2-(4-cyclobutylpiperazin-1-yl)-2-oxoethyl]piperazin-1-yl}-1-(4-fluorobenzyl)-1H-benzimidazole]
O=C(CN1CCN(c2ncc(F)cn2)CC1)N1CCN(C2CCC2)CC1 [Compound 916, 2-{4-[2-(4-cyclobutylpiperazin-1-yl)-2-oxoethyl]piperazin-1-yl}-5-fluoropyrimidine]
O=C(CN1CCN(c2cnc(-c3ccncc3)cn2)CC1)N1CCN(C2CCC2)CC1 [Compound 917, 2-{4-[2-(4-cyclobutylpiperazin-1-yl)-2-oxoethyl]piperazin-1-yl}-5-pyridin-4-ylpyrazine]
O=C(CN1CCN(c2cnc(-c3ccccc3)cn2)CC1)N1CCN(C2CCC2)CC1 [Compound 918, 2-{4-[2-(4-cyclobutylpiperazin-1-yl)-2-oxoethyl]piperazin-1-yl}-5-phenylpyrazine]
O=C(CN1CCN(c2cnc(-c3ccc(F)cc3)cn2)CC1)N1CCN(C2CCC2)CC1 [Compound 919, 2-{4-[2-(4-cyclobutylpiperazin-1-yl)-2-oxoethyl]piperazin-1-yl}-5-(4-fluorophenyl)pyrazine]
Cc1ccc(-c2cnc(N3CCN(CC(=O)N4CCN(C5CCC5)CC4)CC3)cn2)c(F)c1 [Compound 920, 2-{4-[2-(4-cyclobutylpiperazin-1-yl)-2-oxoethyl]piperazin-1-yl}-5-(2-fluoro-4-methylphenyl)pyrazine]
Cc1ccc(F)c(-c2cnc(N3CCN(CC(=O)N4CCN(C5CCC5)CC4)CC3)cn2)c1 [Compound 921, 2-{4-[2-(4-cyclobutylpiperazin-1-yl)-2-oxoethyl]piperazin-1-yl}-5-(2-fluoro-5-methylphenyl)pyrazine]
Cc1ccc(-c2cnc(N3CCN(CC(=O)N4CCN(C5CCC5)CC4)CC3)cn2)cc1F [Compound 922, 2-{4-[2-(4-cyclobutylpiperazin-1-yl)-2-oxoethyl]piperazin-1-yl}-5-(3-fluoro-4-methylphenyl)pyrazine]
Cc1cc(-c2cnc(N3CCN(CC(=O)N4CCN(C5CCC5)CC4)CC3)cn2)ccc1F [Compound 923, 2-{4-[2-(4-cyclobutylpiperazin-1-yl)-2-oxoethyl]piperazin-1-yl}-5-(4-fluoro-3-methylphenyl)pyrazine]
Cc1cccc(-c2cnc(N3CCN(CC(=O)N4CCN(C5CCC5)CC4)CC3)cn2)c1 [Compound 924, 2-{4-[2-(4-cyclobutylpiperazin-1-yl)-2-oxoethyl]piperazin-1-yl}-5-(3-methylphenyl)pyrazine]
Cc1ccc(-c2cnc(N3CCN(CC(=O)N4CCN(C5CCC5)CC4)CC3)cn2)cc1 [Compound 925, 2-{4-[2-(4-cyclobutylpiperazin-1-yl)-2-oxoethyl]piperazin-1-yl}-5-(4-methylphenyl)pyrazine]
CC(C)c1cccc(-c2cnc(N3CCN(CC(=O)N4CCN(C5CCC5)CC4)CC3)cn2)c1 [Compound 926, 2-{4-[2-(4-cyclobutylpiperazin-1-yl)-2-oxoethyl]piperazin-1-yl}-5-(3-isopropylphenyl)pyrazine]
CC(C)c1ccc(-c2cnc(N3CCN(CC(=O)N4CCN(C5CCC5)CC4)CC3)cn2)cc1 [Compound 927, 2-{4-[2-(4-cyclobutylpiperazin-1-yl)-2-oxoethyl]piperazin-1-yl}-5-(4-isopropylphenyl)pyrazine]
Cc1ccc(-c2cnc(N3CCN(CC(=O)N4CCN(C5CCC5)CC4)CC3)cn2)cc1C [Compound 928, 2-{4-[2-(4-cyclobutylpiperazin-1-yl)-2-oxoethyl]piperazin-1-yl}-5-(3,4-dimethylphenyl)pyrazine]
Cc1cc(C)cc(-c2cnc(N3CCN(CC(=O)N4CCN(C5CCC5)CC4)CC3)cn2)c1 [Compound 929, 2-{4-[2-(4-cyclobutylpiperazin-1-yl)-2-oxoethyl]piperazin-1-yl}-5-(3,5-dimethylphenyl)pyrazine]
CCc1ccc(-c2cnc(N3CCN(CC(=O)N4CCN(C5CCC5)CC4)CC3)cn2)cc1 [Compound 930, 2-{4-[2-(4-cyclobutylpiperazin-1-yl)-2-oxoethyl]piperazin-1-yl}-5-(4-ethylphenyl)pyrazine]
CCCc1ccc(-c2cnc(N3CCN(CC(=O)N4CCN(C5CCC5)CC4)CC3)cn2)cc1 [Compound 931, 2-{4-[2-(4-cyclobutylpiperazin-1-yl)-2-oxoethyl]piperazin-1-yl}-5-(4-propylphenyl)pyrazine]
CCc1cccc(-c2cnc(N3CCN(CC(=O)N4CCN(C5CCC5)CC4)CC3)cn2)c1 [Compound 932, 2-{4-[2-(4-cyclobutylpiperazin-1-yl)-2-oxoethyl]piperazin-1-yl}-5-(3-ethylphenyl)pyrazine]
COc1cccc(-c2cnc(N3CCN(CC(=O)N4CCN(C5CCC5)CC4)CC3)cn2)c1 [Compound 933, 2-{4-[2-(4-cyclobutylpiperazin-1-yl)-2-oxoethyl]piperazin-1-yl}-5-(3-methoxyphenyl)pyrazine]
O=C(CN1CCN(c2cnc(-c3ccc(OC(F)(F)F)cc3)cn2)CC1)N1CCN(C2CCC2)CC1 [Compound 934, 2-{4-[2-(4-cyclobutylpiperazin-1-yl)-2-oxoethyl]piperazin-1-yl}-5-[4-(trifluoromethoxy)phenyl] pyrazine]
CCOc1cccc(-c2cnc(N3CCN(CC(=O)N4CCN(C5CCC5)CC4)CC3)cn2)c1 [Compound 935, 2-{4-[2-(4-cyclobutylpiperazin-1-yl)-2-oxoethyl]piperazin-1-yl}-5-(3-ethoxyphenyl)pyrazine]
O=C(CN1CCN(c2cnc(-c3ccc(Oc4ccccc4)cc3)cn2)CC1)N1CCN(C2CCC2)CC1 [Compound 936, 2-{4-[2-(4-cyclobutylpiperazin-1-yl)-2-oxoethyl]piperazin-1-yl}-5-(4-phenoxyphenyl)pyrazine]
O=C(CN1CCN(c2cnc(-c3cccc(OC(F)(F)F)c3)cn2)CC1)N1CCN(C2CCC2)CC1 [Compound 937, 2-{4-[2-(4-cyclobutylpiperazin-1-yl)-2-oxoethyl]piperazin-1-yl}-5-[3-(trifluoromethoxy)phenyl] pyrazine]
CSc1cccc(-c2cnc(N3CCN(CC(=O)N4CCN(C5CCC5)CC4)CC3)cn2)c1 [Compound 938, 2-{4-[2-(4-cyclobutylpiperazin-1-yl)-2-oxoethyl]piperazin-1-yl}-5-[3-(methylthio)phenyl] pyrazine]

Same assay, conditions: Table II; assay of Example 7; "*" in Ki; read-out: Ki

Ki, < 1000 nM:
COc1ccc(-c2ccc(-c3cnc(N4CCN(CC(=O)N5CCN(C6CCC6)CC5)CC4)cn3)cc2)cc1 [Compound 939, 2-{4-[2-(4-cyclobutylpiperazin-1-yl)-2-oxoethyl]piperazin-1-yl}-5-(4′-methoxybiphenyl-4-yl)pyrazine]
COc1cc(F)c(-c2cnc(N3CCN(CC(=O)N4CCN(C5CCC5)CC4)CC3)cn2)cc1F [Compound 940, 2-{4-[2-(4-cyclobutylpiperazin-1-yl)-2-oxoethyl]piperazin-1-yl}-5-(2,5-difluoro-4-methoxyphenyl)pyrazine]
